According to patent publication US6337093B1 (priority 1998, dated 2002):

B1: NK-lysin (protein, UniProt P22749 23-145, looked up)
Granulysin: RLSPEYYDLARAHLRDEEKSCPCLAQEGPQGDLLTKTQELGRDYRTCLTIVQKLKKMVDKPTQRSVSNAATRVCRTGRSRWRDVCRNFMRRYQSRVTQGLVAGETAQQICEDLRLCIPSTGPL
notes: Human cytolitic peptide which directly kills the target cells

How the values were obtained:
[1] = system: tumor; experiment: Combination with bleomycin: tumor growth and life span; conditions: in vivo
Text: As for interferons, interleucins and other known immunomoludatory materials, the efficacy of the pharmaceutical preparations of the present invention is restricted by the basic capacity of the immune system to recognize and attack cancer cells. However, the efficacy may be enhanced when the pharmaceutical preparations are combined with other antitumor drugs.

[2] = system: human and mouse lymphocytes; experiment: Active principle: stimulation of lymphocytes' cytotoxic anticancer activity in vitro; format: cell-based; conditions: comparative analysis of minimum active concentrations

Molecule | Effect on tumor growth and life span [1] | Concentration to enhance cancer cell destruction relative to the effective concentration of the active principle [2]
bleomycin | much less effective | –
B1 | – | more than a million times
